Experimental data as given in the NIST ThermoML archive (doi:10.1016/j.jct.2017.05.001).
± gives the expanded uncertainty stated by the source.

Experiment: wn = mass fraction of the nth substance listed
Conditions: Liquid; for mass density: Vibrating tube method

CN(C)CCO [2-(N,N-dimethylamino)ethanol] + O
mass density [kg/m3]
Conditions	w1 = 0.1005	w1 = 0.202	w1 = 0.3005	w1 = 0.3995
333.15 K, 130000 kPa	–	1018.6 ± 0.7	1012.4 ± 0.7	1005.5 ± 0.7
333.15 K, 140000 kPa	1028.8 ± 0.7	1021.9 ± 0.7	1015.4 ± 0.7	1008.7 ± 0.7
353.15 K, 100 kPa	965.2 ± 0.7	958.1 ± 0.7	950.2 ± 0.7	941.1 ± 0.7
353.15 K, 500 kPa	965.3 ± 0.7	958.1 ± 0.7	950.3 ± 0.7	941.2 ± 0.7
353.15 K, 1000 kPa	965.6 ± 0.7	958.4 ± 0.7	950.6 ± 0.7	941.4 ± 0.7
353.15 K, 2000 kPa	966 ± 0.7	958.8 ± 0.7	951 ± 0.7	941.9 ± 0.7
353.15 K, 5000 kPa	967.3 ± 0.7	960.1 ± 0.7	952.4 ± 0.7	943.3 ± 0.7
353.15 K, 10000 kPa	969.5 ± 0.7	962.4 ± 0.7	954.7 ± 0.7	945.8 ± 0.7
353.15 K, 15000 kPa	971.6 ± 0.7	964.5 ± 0.7	956.9 ± 0.7	948.1 ± 0.7
353.15 K, 20000 kPa	973.8 ± 0.7	966.7 ± 0.7	959.1 ± 0.7	950.5 ± 0.7
353.15 K, 30000 kPa	978 ± 0.7	971 ± 0.7	963.4 ± 0.7	954.9 ± 0.7
353.15 K, 40000 kPa	982 ± 0.7	975 ± 0.7	967.5 ± 0.7	959.2 ± 0.7
353.15 K, 50000 kPa	986 ± 0.7	978.9 ± 0.7	971.6 ± 0.7	963.3 ± 0.7
353.15 K, 60000 kPa	989.9 ± 0.7	982.7 ± 0.7	–	–

viscosity [mPa·s], 353.15 K
Conditions	100 kPa	5000 kPa	10000 kPa	15000 kPa	20000 kPa	25000 kPa	30000 kPa	40000 kPa	60000 kPa
Concentric cylinders viscometry, w1 = 0.1	0.475 ± 0.011	–	–	–	–	–	–	–	–
Concentric cylinders viscometry, w1 = 0.2	0.618 ± 0.013	–	–	–	–	–	–	–	–
Concentric cylinders viscometry, w1 = 0.3	0.809 ± 0.017	–	–	–	–	–	–	–	–
Concentric cylinders viscometry, w1 = 0.4	1.044 ± 0.022	–	–	–	–	–	–	–	–
Falling or rolling sphere viscometry, w1 = 0.1005	0.4624 ± 0.015	0.4644 ± 0.015	0.4671 ± 0.015	0.4699 ± 0.015	0.472 ± 0.015	0.4744 ± 0.016	0.4772 ± 0.016	0.4824 ± 0.016	0.491 ± 0.016
Falling or rolling sphere viscometry, w1 = 0.202	0.6055 ± 0.02	0.6064 ± 0.02	0.6135 ± 0.02	0.6195 ± 0.02	0.6229 ± 0.02	0.6275 ± 0.021	0.6338 ± 0.021	0.6411 ± 0.021	0.659 ± 0.022
Falling or rolling sphere viscometry, w1 = 0.3005	0.8063 ± 0.026	0.812 ± 0.027	0.8213 ± 0.027	0.8321 ± 0.027	0.8407 ± 0.028	0.8485 ± 0.028	0.856 ± 0.028	0.875 ± 0.029	0.9078 ± 0.03
Falling or rolling sphere viscometry, w1 = 0.3995	1.05 ± 0.034	1.059 ± 0.035	1.074 ± 0.035	1.09 ± 0.036	1.105 ± 0.036	1.118 ± 0.037	1.135 ± 0.037	1.167 ± 0.038	1.225 ± 0.04
